Measured values: US5280111A, “Sulfated tocopheryl oligosaccharides and antiviral agents including the same as active ingredients” (Dainippon Ink and Chemicals, Inc., priority 1991, dated 1994)
Values after ≈ are worked out from the molar mass of the structure shown. Read-outs that look alike come from different tables or passages of the source.

Tests used:
Format in all cases: cell-based
HIV-1 = experiment: Anti-HIV assay: inhibition of virus induced cytopathogenicity in MT-4 cells (MTT method); conditions: for EC50: HIV-1-infected MT-4 cells, MOI 0.01, 5 days at 37° C., MTT method; for SI: ratio of CC50/EC50, 7200 min
Experimental: (§1) Activity of the compound against HIV-1 replication was based on the inhibition of virus induced cytopathogenicity in MT-4 cells. MT-4 cells were suspended in culture medium at 2.5×10^4 cells/ml and infected with HIV-1 at a multiplicity of infection (MOI) of 0.01. 100 μl of cell suspension was brought into microtiter tray wells containing various concentrations of the test compounds.
(§2) After 5 days of incubation at 37° C. using a CO2 incubator, the number of viable cells was determined by the MTT method.
(§3) The inhibitory effect on host cell viability (cytotoxicity) was also determined by the MTT method. All activities of the compounds are expressed as 50% inhibitory concentration, i.e., the concentration required to reduce the number of HIV-1-infected MT-4 cells or mock-infected MT-4 cells by 50%. These are expressed using EC50 and CC50. SI is expressed by the ratio of CC50 /EC50. (Reference document: Pauwels, et al., J. Virol Methods, 20 (1988) 309~321).
(§4) According to this method, the anti-HIV assay was carried out using the compounds obtained in Examples 9 to 14. In addition, AZT (3'-azido-3'-deoxythymidine) known as an anti-AIDS agent was employed as a comparative example.

[1] = Cytotoxicity: inhibitory effect on host cell viability, mock-infected MT-4 cells (MTT method); conditions: human; mock-infected MT-4 cells; 50% reduction of viable cells; MTT method; 5 days at 37° C.
Experimental: as §1, §2, §3, §4

MT-4 cells = experiment: as above; conditions: human, mt-4 cells, 120 h
Experimental: as §1, §2, §3, §4

Compound	EC50 (HIV-1; Human immunodeficiency virus 1, MT4, 120 h, read-out: EC50) [mg/L]	SI (HIV-1)	CC50 at 120 h [1] [mg/L]	EC50 (HIV-1) [mg/L]	CC50 (MT-4 cells) [mg/L]
Cc1cn([C@H]2C[C@H](N=[N+]=[N-])[C@@H](CO)O2)c(=O)[nH]c1=O [AZT, 3'-azido-3'-deoxythymidine, reference compound]	0.0013 (≈ 0.00486 µM)	2160	2.88 (≈ 10.8 µM)		
sulfated dl-α-tocopheryl β-D-galactosyl(1→4)-β-D-lactoside [Example 9]		587		1.03	606
sulfated ester sodium salt of dl-α-tocopheryl β-D-glucosyl(1→3)-{β-D-glucosyl(1→3)}3 -β-D-glucoside (1) [Example 10]		> 920		0.52	> 480
sulfated ester sodium salt of dl-α-tocopheryl β-D-glucosyl(1→3)-{β-D-glucosyl(1→3)}7 -β-D-glucoside [Example 12]		> 1000		0.44	> 480
Cc1c(C)c2c(c(C)c1O[C@@H]1O[C@H](COS(=O)(=O)O)[C@@H](O[C@@H]3O[C@H](COS(=O)(=O)O)[C@H](O[C@@H]4O[C@H](COS(=O)(=O)O)[C@H](O[C@@H]5O[C@H](COS(=O)(=O)O)[C@H](OS(=O)(=O)O)[C@H](OS(=O)(=O)O)[C@H]5OS(=O)(=O)O)[C@H](OS(=O)(=O)O)[C@H]4OS(=O)(=O)O)[C@H](OS(=O)(=O)O)[C@H]3OS(=O)(=O)O)[C@H](OS(=O)(=O)O)[C@H]1OS(=O)(=O)O)CCC(C)(CCCC(C)CCCC(C)CCCC(C)C)O2 (mixture of isomers) [Example 13, sulfated dl-α-tocopheryl β-D-galactosyl(1→4)-β-D-galactosyl(1→4)-β-D-lactoside]					621
sulfated dl-α-tocopheryl β-D-galactosyl(1→4)-β-D-galactosyl(1→4)-β-D-lactoside [Example 14]		1151		0.57	656
sulfated ester sodium salt of dl-α-tocopheryl β-D-glucosyl(1→3)-{β-D-glucosyl(1→3)}3 -β-D-glucoside (2) [Example 11]		> 1000		0.45	> 480
